Source: US6355799B1, “Substituted benzene compounds, process for their preparation, and herbicidal and defoliant compositions containing them” (ISK Americas Incorporated, priority 1997, dated 2002)

What was measured:
Assay type in all cases: in vivo
[1] = system: barnyardgrass (Echinochloa crus-galli, ECHCG); experiment: Pre-emerge test, greenhouse herbicide activity screening; settings: for phytotoxicity rating ECHCG: pre-emerge, 14 days after application, scale 0-100; for Pre-emerge Herbicidal Activity ECHCG: phytotoxicity rating 0-100, 14 days after application
Outline: (§1)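 Rating: 0–100 visual injury, 14 DAA. Application: acetone, 187 l/ha, 15–1000 g ai/ha, flat-fan track sprayer with nozzle 40–45 cm above soil or canopy. Post-emerge runs used 0.25% v/v surfactant on 2–3 leaf plants.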

[2] = system: lambsquarters (Chenopodium album, CHEAL); experiment: as above; settings: for phytotoxicity rating CHEAL: pre-emerge, 14 days after application, scale 0-100; for Pre-emerge Herbicidal Activity CHEAL: phytotoxicity rating 0-100, 14 days after application
Outline: as §1

[3] = system: green foxtail (Setaria viridis, SETVI); experiment: as above; settings: for phytotoxicity rating SETVI: pre-emerge, 14 days after application, scale 0-100; for Pre-emerge Herbicidal Activity SETVI: phytotoxicity rating 0-100, 14 days after application
Outline: as §1

[4] = system: ivyleaf morningglory (Ipomoea hederacea, IPOHE); experiment: as above; settings: for phytotoxicity rating IPOHE: pre-emerge, 14 days after application, scale 0-100; for Pre-emerge Herbicidal Activity IPOHE: phytotoxicity rating 0-100, 14 days after application
Outline: as §1

[5] = system: large crabgrass (Digitaria sanguinalis, DIGSA); experiment: as above; settings: for phytotoxicity rating DIGSA: pre-emerge, 14 days after application, scale 0-100; for Pre-emerge Herbicidal Activity DIGSA: phytotoxicity rating 0-100, 14 days after application
Outline: as §1

[6] = system: velvetleaf (Abutilon theophrasti, ABUTH); experiment: as above; settings: for phytotoxicity rating ABUTH: pre-emerge, 14 days after application, scale 0-100; for Pre-emerge Herbicidal Activity ABUTH: phytotoxicity rating 0-100, 14 days after application
Outline: as §1

[7] = system: sicklepod (Cassia obtusifolia, CASOB); experiment: as above; settings: for phytotoxicity rating CASOB: pre-emerge, 14 days after application, scale 0-100; for Pre-emerge Herbicidal Activity CASOB: phytotoxicity rating 0-100, 14 days after application
Outline: as §1

[8] = system: field corn (Zea mays L., var. Dekalb 535, CORN); experiment: Pre-emerge test, crop safety; settings: for phytotoxicity rating CORN (crop damage): pre-emerge, 14 days after application, scale 0-100; for Pre-emerge Herbicidal Activity CORN: crop damage rating 0-100, 14 days after application
Outline: (§2)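 Sandy loam pots; pre-emerge: sown 1 d pre-spray, surface-watered after, then bottom-watered. Post-emerge: sown 8–21 d before, 2–3 leaf stage, + 0.25% v/v NIS, bottom-watered. Acetone, 187 l/ha track spray, 15–1000 g ai/ha. 0–100 injury score, day 14.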

[9] = system: upland rice (Oryza sp., var. Tebonnet, RICE); experiment: Pre-emerge test, crop safety; settings: for phytotoxicity rating RICE (crop damage): pre-emerge, 14 days after application, scale 0-100; for Pre-emerge Herbicidal Activity RICE: crop damage rating 0-100, 14 days after application
Outline: as §2

[10] = system: barnyardgrass (Echinochloa crus-galli, ECHCG); experiment: Post-emerge test, greenhouse herbicide activity screening; settings: post-emerge, 14 days after application, rating scale 0-100
Outline: (§3)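 Visual ratings on a 0-100 scale (0 no damage, 100 all plants dead) were taken at 14 days after treatment. Rates of 15-1000 g ai/ha in acetone, 187 l/ha, were sprayed onto soil one day after planting (pre-emerge) or onto 2-3 leaf plants with 0.25% v/v surfactant (post-emerge).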

[11] = system: redroot pigweed (Amaranthus retroflexus, AMARE); experiment: as above; settings: post-emerge, 14 days after application
Outline: as §3

[12] = system: lambsquarters (Chenopodium album, CHEAL); experiment: as above; settings: post-emerge, 14 days after application, rating scale 0-100
Outline: as §3

[13] = system: green foxtail (Setaria viridis, SETVI); experiment: as above; settings: post-emerge, 14 days after application, rating scale 0-100
Outline: as §3

[14] = system: ivyleaf morningglory (Ipomoea hederacea, IPOHE); experiment: as above; settings: post-emerge, 14 days after application, rating scale 0-100
Outline: as §3

[15] = system: large crabgrass (Digitaria sanguinalis, DIGSA); experiment: as above; settings: post-emerge, 14 days after application, rating scale 0-100
Outline: as §3

[16] = system: velvetleaf (Abutilon theophrasti, ABUTH); experiment: as above; settings: post-emerge, 14 days after application, rating scale 0-100
Outline: as §3

[17] = system: sicklepod (Cassia obtusifolia, CASOB); experiment: as above; settings: post-emerge, 14 days after application, rating scale 0-100
Outline: as §3

[18] = system: redroot pigweed (Amaranthus retroflexus, AMARE); experiment: Pre-emerge test, greenhouse herbicide activity screening; settings: for phytotoxicity rating AMARE: pre-emerge, 14 days after application, scale 0-100; for Pre-emerge Herbicidal Activity AMARE: phytotoxicity rating 0-100, 14 days after application
Outline: as §3

[19] = system: field corn (Zea mays L., var. Dekalb 535, CORN); experiment: Post-emerge test, crop safety; settings: post-emerge, 14 days after application, rating scale 0-100
Outline: (§4)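 Plants grown in 10 cm pots of sandy loam mix received acetone-dissolved compounds through a moving flat-fan nozzle. Doses ranged from 15 to 1000 g ai/ha. Pre-emerge pots were seeded one day earlier, post-emerge pots 8–21 days earlier. Fourteen days on, each pot was graded 0–100 for damage.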

[20] = system: upland rice (Oryza sp., var. Tebonnet, RICE); experiment: Post-emerge test, crop safety; settings: post-emerge, 14 days after application, rating scale 0-100
Outline: as §4

[21] = 250 g ai/ha, rating scale 0-100

With COc1c(Cl)cc(F)c(-n2c(=O)cc(C(F)(F)F)n(C)c2=O)c1NC(=O)CCc1cc(C)ccc1C [2-130] the “phytotoxicity rating ECHCG” value ([1]; 63 g ai/ha) was 0, the “phytotoxicity rating ECHCG” value ([1]; 250 g ai/ha) was 30 and the “phytotoxicity rating CHEAL” value ([2]; 63 g ai/ha) was 60. The “phytotoxicity rating CHEAL” value ([2]; 250 g ai/ha) was 100, the “phytotoxicity rating SETVI” value ([3]; 63 g ai/ha) was 50 and the “phytotoxicity rating SETVI” value ([3]; 250 g ai/ha) was 100. For the same compound, the “phytotoxicity rating IPOHE” value ([4]; 63 g ai/ha) was 0, the “phytotoxicity rating IPOHE” value ([4]; 250 g ai/ha) was 30 and the “phytotoxicity rating DIGSA” value ([5]; 63 g ai/ha) was 20. The “phytotoxicity rating DIGSA” value ([5]; 250 g ai/ha) was 90, the “phytotoxicity rating ABUTH” value ([6]; 63 g ai/ha) was 100 and the “phytotoxicity rating ABUTH” value ([6]; 250 g ai/ha) was 100. For the same compound, the “phytotoxicity rating CASOB” value ([7]; 63 g ai/ha) was 0, the “phytotoxicity rating CASOB” value ([7]; 250 g ai/ha) was 40 and the “phytotoxicity rating CORN (crop damage)” value ([8]; 63 g ai/ha) was 0. For the same compound, the “phytotoxicity rating CORN (crop damage)” value ([8]; 250 g ai/ha) was 5, the “phytotoxicity rating RICE (crop damage)” value ([9]; 63 g ai/ha) was 0 and the “phytotoxicity rating RICE (crop damage)” value ([9]; 250 g ai/ha) was 15. For the same compound, the ECHCG phytotoxicity rating ([10]; 63 g ai/ha) was 50, the ECHCG phytotoxicity rating ([10]; 250 g ai/ha) was 60 and the AMARE phytotoxicity rating ([11]; 63 g ai/ha, rating scale 0-100) was 100. The AMARE phytotoxicity rating [11, 21] was 100, the CHEAL phytotoxicity rating ([12]; 63 g ai/ha) was 100 and the CHEAL phytotoxicity rating ([12]; 250 g ai/ha) was 100. For the same compound, the SETVI phytotoxicity rating ([13]; 63 g ai/ha) was 60, the SETVI phytotoxicity rating ([13]; 250 g ai/ha) was 70 and the IPOHE phytotoxicity rating ([14]; 63 g ai/ha) was 100. It also gave an IPOHE phytotoxicity rating ([14]; 250 g ai/ha) of 100, a DIGSA phytotoxicity rating ([15]; 63 g ai/ha) of 30 and a DIGSA phytotoxicity rating ([15]; 250 g ai/ha) of 50. The ABUTH phytotoxicity rating ([16]; 63 g ai/ha) was 100, the ABUTH phytotoxicity rating ([16]; 250 g ai/ha) was 100 and the CASOB phytotoxicity rating ([17]; 63 g ai/ha) was 80. The CASOB phytotoxicity rating ([17]; 250 g ai/ha) was 70, the “phytotoxicity rating AMARE” value ([18]; 63 g ai/ha) was 40 and the “phytotoxicity rating AMARE” value ([18]; 250 g ai/ha) was 100. The “CORN phytotoxicity rating (crop damage)” value ([19]; 63 g ai/ha) was 10, the “CORN phytotoxicity rating (crop damage)” value ([19]; 250 g ai/ha) was 30 and the “RICE phytotoxicity rating (crop damage)” value ([20]; 63 g ai/ha) was 20. For the same compound, the “RICE phytotoxicity rating (crop damage)” value ([20]; 250 g ai/ha) was 25.
In the case of COc1c(Cl)cc(F)c(-n2c(=O)cc(C(F)(F)F)n(C)c2=O)c1NC(=O)OCc1cc(C)ccc1C [4-38], the “Pre-emerge Herbicidal Activity ECHCG” value ([1]; 63 g ai/ha) is reported as 30, the “Pre-emerge Herbicidal Activity ECHCG” value ([1]; 250 g ai/ha) is reported as 60 and the “Pre-emerge Herbicidal Activity CHEAL” value ([2]; 63 g ai/ha) is reported as 100. The “Pre-emerge Herbicidal Activity CHEAL” value ([2]; 250 g ai/ha) was 100, the “Pre-emerge Herbicidal Activity SETVI” value ([3]; 63 g ai/ha) was 100 and the “Pre-emerge Herbicidal Activity SETVI” value ([3]; 250 g ai/ha) was 100. For the same compound, the “Pre-emerge Herbicidal Activity IPOHE” value ([4]; 63 g ai/ha) was 60, the “Pre-emerge Herbicidal Activity IPOHE” value ([4]; 250 g ai/ha) was 50 and the “Pre-emerge Herbicidal Activity DIGSA” value ([5]; 63 g ai/ha) was 95. For the same compound, the “Pre-emerge Herbicidal Activity DIGSA” value ([5]; 250 g ai/ha) was 100, the “Pre-emerge Herbicidal Activity ABUTH” value ([6]; 63 g ai/ha) was 80 and the “Pre-emerge Herbicidal Activity ABUTH” value ([6]; 250 g ai/ha) was 100. The “Pre-emerge Herbicidal Activity CASOB” value ([7]; 63 g ai/ha) was 30, the “Pre-emerge Herbicidal Activity CASOB” value ([7]; 250 g ai/ha) was 60 and the “Pre-emerge Herbicidal Activity CORN” value ([8]; 63 g ai/ha) was 10. The “Pre-emerge Herbicidal Activity CORN” value ([8]; 250 g ai/ha) was 20, the “Pre-emerge Herbicidal Activity RICE” value ([9]; 63 g ai/ha) was 35 and the “Pre-emerge Herbicidal Activity RICE” value ([9]; 250 g ai/ha) was 60. For the same compound, the “phytotoxicity rating ECHCG” value ([10]; 63 g ai/ha) was 50, the “phytotoxicity rating ECHCG” value ([10]; 250 g ai/ha) was 50 and the “phytotoxicity rating AMARE” value ([11]; 63 g ai/ha, rating scale 0-100 (0 no damage, 100 complete death)) was 100. For the same compound, the “phytotoxicity rating AMARE” value [11, 21] was 100, the “phytotoxicity rating CHEAL” value ([12]; 63 g ai/ha) was 100 and the “phytotoxicity rating CHEAL” value ([12]; 250 g ai/ha) was 100. The “phytotoxicity rating SETVI” value ([13]; 63 g ai/ha) was 60, the “phytotoxicity rating SETVI” value ([13]; 250 g ai/ha) was 80 and the “phytotoxicity rating IPOHE” value ([14]; 63 g ai/ha) was 100. The “phytotoxicity rating IPOHE” value ([14]; 250 g ai/ha) was 100, the “phytotoxicity rating DIGSA” value ([15]; 63 g ai/ha) was 40 and the “phytotoxicity rating DIGSA” value ([15]; 250 g ai/ha) was 40. For the same compound, the “phytotoxicity rating ABUTH” value ([16]; 63 g ai/ha) was 100, the “phytotoxicity rating ABUTH” value ([16]; 250 g ai/ha) was 100 and the “phytotoxicity rating CASOB” value ([17]; 63 g ai/ha) was 90. The “phytotoxicity rating CASOB” value ([17]; 250 g ai/ha) was 100, the “Pre-emerge Herbicidal Activity AMARE” value ([18]; 63 g ai/ha) was 100 and the “Pre-emerge Herbicidal Activity AMARE” value ([18]; 250 g ai/ha) was 100. For the same compound, the “phytotoxicity rating CORN (crop damage)” value ([19]; 63 g ai/ha) was 40, the “phytotoxicity rating CORN (crop damage)” value ([19]; 250 g ai/ha) was 85 and the “phytotoxicity rating RICE (crop damage)” value ([20]; 63 g ai/ha) was 35. For the same compound, the “phytotoxicity rating RICE (crop damage)” value ([20]; 250 g ai/ha) was 50.
